Data set [1] relates to HMEC cells. Put plainly: pH2AX foci 24 h after contacting, Table 4 lower part (HMEC endothelial cells). Type of data set: cell-based, human. As to conditions: line cell blank (below Hasp), 24 hours after contacting. Summed up:
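Cells on glass coverslips exposed at 37° C to the DNA-breaking agent at concentration C; unexposed coverslips give spontaneous level. After 24 h, fixed in 3% paraformaldehyde/2% sucrose, permeabilized, stained with anti-pH2AX (1:800) and FITC/TRITC secondaries plus DAPI; mean nuclear foci counted by immunofluorescence on at least 50 G0/G1 cells.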

For data set [2], the system named is HMEC cells. In words: Micronuclei per 100 cells 24 h after contacting, Table 4 lower part (HMEC). As to conditions: line cell blank (below Hasp). Type of data set: cell-based, human. In short, it runs like this: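 Patient-derived cell lines, non-transformed, grown on coverslips at 37 °C and exposed to DNA-breaking agents at various concentrations alongside untreated controls. After 24 h, cells fixed in paraformaldehyde/sucrose, permeabilized, and counterstained with DAPI; micronuclei counted as mean per 100 cells.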

In data set [3] the test system is pH2AX nuclear foci (DNA double-strand breaks). In words: Single toxicity scale: reference concentration Cref and risk group prediction from NpH2AX(24 h). It is filed as cell-based, human. As to conditions: for Reference concentration Cref: NpH2AX(24 h) < 2, determined from data of table 4. On the procedure:
(i) if the reference concentration has not previously been determined by the chemical or biochemical agent to be studied, a cell sample is prepared by dispersion and/or amplification of so-called reference cells (sensitivity group I); a plurality of concentrations within a broad concentration range of said breaking agent (said concentration range ranging for example from nM to mM) is applied for a predetermined period of time (preferably 24 hours) on this cell sample; pH2AX immunofluorescence is performed with DAPI counterstaining which also enables on the same cell sample the analysis of micronuclei for all the concentrations applied.
(ii) Either the mean number of nuclear foci observed with the marker pH2AX at the observation times t and at the concentration C (this mean number being referred to as NpH2AX(t, C)), or the mean number of micronuclei per 100 cells at the observation times t and at the concentration C (this mean number being referred to as NMN(t, C)), or the standard error a corresponding to the error committed on these respective measurements which must be performed on at least 50 nuclei once (Gaussian standard error) or 3 independent experiments of 50 nuclei (standard error of the mean).
(iii) The so-called reference concentration Cref is the concentration giving:
NpH2AX(24 h,Cref)+2σ=2 or indeed NMN(24 h,Cref)+2σ=2%;
If for the cell sample NpH2AX(24 h, Cref)<=2 or NMN(24 h, Cref)<=0.5%, preferably NMN(24 h, Cref)<=1% or even more preferentially NMN(24 h, Cref)<=2%, then the genotoxic risk is considered to be low or described as “Group I”
The experimental data presented in table 4 above were used to determine the reference concentration Cref particularly for Pb(NO3)2 (Cref<1 μM) and CdCl2 (Cref=10 μM).
Table 5 presents numerical examples of correspondence between the single toxicity scale according to the invention and the corresponding clinical signs.

Another data set concerns humans exposed. As to conditions: clinical effects observed, cited from earlier work.
Data set [4] has as its system 01PAU cells. In words: pH2AX foci 24 h after contacting, 01PAU. It is filed as cell-based, human. Here is the method:
(§1) In one embodiment, on receipt, the tissue sample (typically the biopsy) is established in the form of an amplifiable cell line without a viral or chemical transformation agent according to an ancillary procedure well known to culture laboratories, as underlined by the publication of Elkind et al. “The radiobiology of cultured mammalian cell”, Gordon and Breach (1967). Once the number of cells is sufficient (typically after 1 to 3 weeks), the first experiments are carried out using the process according to the invention. A cell sample is prepared: The cells are inoculated on glass coverslips in Petri dishes. A portion of these coverslips are contaminated with metals or pesticides or any other DNA-breaking chemical or biochemical agent at different concentrations. A further portion is not contaminated; it represents the spontaneous state. During contamination, the cells remain in the culture incubator at 37° C.
(§2) For the contaminated cells, characteristics are acquired corresponding to the state after an incubation time with the DNA-breaking chemical or biochemical agent. Said characteristics are represented by foci corresponding to the marker pH2AX. The cells on glass coverslips are then fixed, lysed and hybridized. The following procedure, known per se (Bodgi et al, “A single formula to describe radiation-induced protein relocalization: towards a mathematical definition of individual radiosensitivity”, J Theor Biol. 21 p 333:135-45.2013):
(§3) the cells are fixed in 3% paraformaldehyde and 2% sucrose for 15 minutes at ambient temperature and permeabilized in 20 mM HEPES buffer solution (4-(2-hydroxyethyl)-1-piperazine ethane sulfonic acid) at pH 7.4, 50 mM NaCl, 3 mM MgCl2, 300 mM sucrose, 0.5% Triton X-100 (a non-ionic surfactant having the formula t-Oct-C6H4-(OCH2CH2)×OH where x=9-10, CAS No. 9002-93-1, supplied for example by Sigma Aldrich) for 3 minutes. The glass coverslips are then washed in phosphate buffer saline (known as the acronym PBS) before immunological staining. The incubation took place for 40 min at 37° C. in PBS supplemented with 2% bovine serum albumin (known as the acronym BSA or fraction V, supplied for example by Sigma Aldrich) and was followed by a wash with PBS. Anti-pH2AX primary antibodies are used at a concentration of 1:800. […]
(§4) The results are acquired using these coverslips on an immunofluorescence microscope (Olympus model for example). The reading may be direct (typically by counting the foci on at least 50 cells in G0/G1 for each point) or using dedicated image analysis software, or on an automated microscope; preferably the software or automated microscope methods are calibrated with manual determinations. […]

The subject of data set [5] is 01PAU cells. In words: Micronuclei per 100 cells 24 h after contacting, 01PAU. It is filed as cell-based, human. On the procedure: as §1
(§5) the cells are fixed in 3% paraformaldehyde and 2% sucrose for 15 minutes at ambient temperature and permeabilized in 20 mM HEPES buffer solution (4-(2-hydroxyethyl)-1-piperazine ethane sulfonic acid) at pH 7.4, 50 mM NaCl, 3 mM MgCl2, 300 mM sucrose, 0.5% Triton X-100 (a non-ionic surfactant having the formula t-Oct-C6H4-(OCH2CH2)×OH where x=9-10, CAS No. 9002-93-1, supplied for example by Sigma Aldrich) for 3 minutes. The glass coverslips are then washed in phosphate buffer saline (known as the acronym PBS) before immunological staining. The incubation took place for 40 min at 37° C. in PBS supplemented with 2% bovine serum albumin (known as the acronym BSA or fraction V, supplied for example by Sigma Aldrich) and was followed by a wash with PBS. Anti-pH2AX primary antibodies are used at a concentration of 1:800. The incubations with anti-mouse FITC or anti-rabbit TRITC secondary antibodies (1:100, supplied by Sigma Aldrich) were performed at 37° C. in 2% BSA for 20 minutes. Glass coverslips were treated with Vectashield™ containing DAPI (4,6-Diamidino-2-phenylindole) to label the nucleus. Staining with DAPI also makes it possible, indirectly, to determine the number of cells in phase G1 (nuclei with homogenous DAPI staining), in phase S (nuclei with numerous pH2AX foci), in phase G2 (nuclei with heterogeneous DAPI staining) and metaphases (visible chromosomes).
(§6) Counterstaining with DAPI (a DNA marker known to those skilled in the art) makes it possible to locate the nucleus to situate the cytoplasmic or nuclear location to quantify the micronuclei, which are complementary cell markers to the data on the foci.
(§7) The tables hereinafter summarize the results of numerous experiments which were carried out as described in the “Detailed description” section above. […]

Data set [6] relates to 08HNG cells. Put plainly: pH2AX foci 24 h after contacting, 08HNG. It is filed as cell-based, human. On the procedure:
as §1, §2, §3, §4

Data set [7] relates to 08HNG cells. In words: Micronuclei per 100 cells 24 h after contacting, 08HNG. It is filed as cell-based, human. Here is the method:
as §1, §5, §6, §7

The structures appear in SMILES notation. Bounds are passed on as bounds.

As to `O=[N+]([O-])[O-].O=[N+]([O-])[O-].[Pb+2]` [Pb(NO3)2], the pH2AX in the data set with HMEC cells [1] (10 μM) stood at 4 foci; in the data set on HMEC cells [1] (30 μM) it was 7.5 foci; in the data set on HMEC cells [1] (100 μM), 15 foci; in the data set on HMEC cells [1] (300 μM), 21 foci. Further, the Micronuclei worked out at 0 per 100 cells in the data set on HMEC cells [2] (10 μM); 7 per 100 cells with HMEC cells [2] (30 μM); 12 per 100 cells in the data set on HMEC cells [2] (100 μM); 20 per 100 cells with HMEC cells [2] (300 μM); 10 per 100 cells in the data set on HMEC cells [2] (1000 μM). In addition, the “Reference concentration Cref” value in data set [3] and in data set [3] (listed as Lead) was less than 1 µM each time. Besides, the “Prediction based on algorithm: concentration above which “Group III” risk” value in data set [3] (NpH2AX(24 h) > 8) was more than 30 µM. Besides, in the data set with humans exposed, the “Onset of signs of saturnism, concentration in blood” value is recorded as “Onset of signs of saturnism above 100 μg/l of μg/l of blood”. In the data set with humans exposed (corresponding to 100 μg/l of blood), the “Onset of signs of saturnism, corresponding concentration” value is “blood corresponding to approximately 2 μM”.

Consider `CC1(C)C(C=C(Cl)Cl)C1C(=O)OCc1cccc(Oc2ccccc2)c1` (stereo not drawn) [Permethrin], for which the pH2AX was 0.1 foci in the data set on 01PAU cells [4] (0.3 μM), 0.2 foci in the data set on 01PAU cells [4] (1 μM), 1.3 foci in the data set with 01PAU cells [4] (5 μM) and 1.8 foci in the data set on 01PAU cells [4] (10 μM). Moreover, the Micronuclei was 2 per 100 cells in the data set with 01PAU cells [5] (0.3 μM), 2 per 100 cells in the data set with 01PAU cells [5] (1 μM), 4 per 100 cells in the data set on 01PAU cells [5] (5 μM) and 6 per 100 cells in the data set on 01PAU cells [5] (10 μM).

Consider `c1ccc2[nH]c(-c3cscn3)nc2c1` [Thiobendazole], for which the pH2AX was found to be 1.8 foci with 08HNG cells [6] (0.3 μM), 2 foci in the data set on 08HNG cells [6] (1 μM), 4.3 foci in the data set with 08HNG cells [6] (3 μM) and 6 foci with 08HNG cells [6] (10 μM). The Micronuclei is 2 per 100 cells in the data set on 08HNG cells [7] (0.3 μM), 4 per 100 cells in the data set with 08HNG cells [7] (1 μM), 10 per 100 cells with 08HNG cells [7] (3 μM) and 10 per 100 cells in the data set on 08HNG cells [7] (10 μM).

(Values after US20180238860A1, “INDIVIDUAL METHOD PREDICTIVE OF THE DNA-BREAKING GENOTOXIC EFFECTS OF CHEMICAL OR BIOCHEMICAL AGENTS” (priority 2015, published 2018).)
